Test results published in ChEMBL document CHEMBL1201861, “Genomics of Drug Sensitity in Cancer screening data, Wellcome Trust Sanger Institute”.

Tests used:
Test in all cases: cells
Type in all cases: functional, cell-based
Conditions in all cases: Homo sapiens
J82 = test system: J82;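 note: growth inhibition of J82 cells, read out with a cell viability assay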
Description: SANGER: Inhibition of human J82 cell growth in a cell viability assay.

EHEB = test system: EHEB;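 note: growth inhibition of human EHEB cells, read out with a cell viability assay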
Description: SANGER: Inhibition of human EHEB cell growth in a cell viability assay.

SK-MEL-24 = test system: SK-MEL-24;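 note: growth inhibition read out by a cell viability assay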
Description: SANGER: Inhibition of human SK-MEL-24 cell growth in a cell viability assay.

BFTC-905 = test system: BFTC-905
Description: SANGER: Inhibition of human BFTC-905 cell growth in a cell viability assay.

SCC-9 = test system: SCC-9;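 note: Read-out is a cell viability assay, with values giving inhibition of cell growth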
Description: SANGER: Inhibition of human SCC-9 cell growth in a cell viability assay.

NCI-H1651 = test system: NCI-H1651;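 note: Read-out is a cell viability assay, with IC50 expressing inhibition of NCI-H1651 cell growth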
Description: SANGER: Inhibition of human NCI-H1651 cell growth in a cell viability assay.

DMS-153 = test system: DMS-153
Description: SANGER: Inhibition of human DMS-153 cell growth in a cell viability assay.

EFO-27 = test system: EFO-27;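 note: growth inhibition of EFO-27 cells, read out with a cell viability assay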
Description: SANGER: Inhibition of human EFO-27 cell growth in a cell viability assay.

MDA-MB-175-VII = test system: MDA-MB-175-VII
NCI-H596 = test system: NCI-H596;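 note: growth inhibition of NCI-H596 cells, read out with a cell viability assay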
Description: SANGER: Inhibition of human NCI-H596 cell growth in a cell viability assay.

NCI-H1436 = test system: NCI-H1436;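 note: growth suppression of human NCI-H1436 cells, determined with a cell viability readout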
Description: SANGER: Inhibition of human NCI-H1436 cell growth in a cell viability assay.

SNU-387 = test system: SNU-387
Description: SANGER: Inhibition of human SNU-387 cell growth in a cell viability assay.

639-V = test system: 639-V;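 note: growth inhibition of 639-V cells, read out with a cell viability assay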
Description: SANGER: Inhibition of human 639-V cell growth in a cell viability assay.

Hs-578T = test system: Hs-578T
Description: SANGER: Inhibition of human Hs-578-T cell growth in a cell viability assay.

OAW-42 = test system: OAW-42;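 note: growth inhibition of OAW-42 cells, read out with a cell viability assay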
Description: SANGER: Inhibition of human OAW-42 cell growth in a cell viability assay.

SK-MM-2 = test system: SK-MM-2;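 note: growth inhibition of human SK-MM-2 cells, read out with a cell viability assay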
Description: SANGER: Inhibition of human SK-MM-2 cell growth in a cell viability assay.

AU565 = test system: AU565;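 note: cell viability assay measuring growth inhibition of human AU565 cells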
Description: SANGER: Inhibition of human AU565 cell growth in a cell viability assay.

SW948 = test system: SW948;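 note: growth inhibition of SW948 cells, read out with a cell viability assay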
Description: SANGER: Inhibition of human SW948 cell growth in a cell viability assay.

RERF-LC-MS = test system: RERF-LC-MS;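 note: growth inhibition of human RERF-LC-MS cells, read out by a cell viability assay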
Description: SANGER: Inhibition of human RERF-LC-MS cell growth in a cell viability assay.

UACC-893 = test system: UACC-893
Description: SANGER: Inhibition of human UACC-893 cell growth in a cell viability assay.

LU-99A = test system: LU-99A;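 note: growth inhibition of LU-99A cells, read out with a cell viability assay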
Description: SANGER: Inhibition of human LU-99A cell growth in a cell viability assay.

NCI-H2196 = test system: NCI-H2196;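 note: cell viability assay used as the readout of growth inhibition in NCI-H2196 cells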
Description: SANGER: Inhibition of human NCI-H2196 cell growth in a cell viability assay.

T84 = test system: T84;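 note: growth inhibition measured with a cell viability readout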
Description: SANGER: Inhibition of human T84 cell growth in a cell viability assay.

CA46 = test system: CA46;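 note: growth inhibition of human CA46 cells, read out by a cell viability assay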
Description: SANGER: Inhibition of human CA46 cell growth in a cell viability assay.

A-431 = test system: A-431;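 note: growth inhibition of A-431 cells, determined with a cell viability read-out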
Description: SANGER: Inhibition of human A431 cell growth in a cell viability assay.

HCC38 = test system: HCC38;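 note: cell viability assay on the human HCC38 cell line, with IC50 marking the concentration that inhibits cell growth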
Description: SANGER: Inhibition of human HCC38 cell growth in a cell viability assay.

PC-14 = test system: PC-14;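 note: cell viability assay measuring inhibition of PC-14 cell growth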
Description: SANGER: Inhibition of human PC-14 cell growth in a cell viability assay.

HT-3 = test system: HT-3;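 note: growth inhibition measured with a cell viability readout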
Description: SANGER: Inhibition of human HT-3 cell growth in a cell viability assay.

U-698-M = test system: U-698-M
Description: SANGER: Inhibition of human U-698-M cell growth in a cell viability assay.

LK-2 = test system: LK-2;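 note: growth inhibition of LK-2 cells, read out with a viability assay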
Description: SANGER: Inhibition of human LK-2 cell growth in a cell viability assay.

NCI-H441 = test system: NCI-H441;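 note: growth inhibition of NCI-H441 cells, read out with a cell viability assay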
Description: SANGER: Inhibition of human NCI-H441 cell growth in a cell viability assay.

HT-1080 = test system: HT-1080
Description: SANGER: Inhibition of human HT-1080 cell growth in a cell viability assay.

SW1783 = test system: SW1783;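 note: cell growth inhibition measured with a viability assay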
Description: SANGER: Inhibition of human SW1783 cell growth in a cell viability assay.

REH = test system: REH;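 note: growth inhibition of REH cells determined with a cell viability read-out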
Description: SANGER: Inhibition of human REH cell growth in a cell viability assay.

H4 = test system: H4
Description: SANGER: Inhibition of human H4 cell growth in a cell viability assay.

NCI-H2122 = test system: NCI-H2122;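 note: growth inhibition of the cells, read out with a cell viability assay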
Description: SANGER: Inhibition of human NCI-H2122 cell growth in a cell viability assay.

NCI-H748 = test system: NCI-H748;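 note: growth inhibition of NCI-H748 cells, measured by a cell viability assay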
Description: SANGER: Inhibition of human NCI-H748 cell growth in a cell viability assay.

KYSE-70 cell line = test system: KYSE-70 cell line;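 note: cell viability assay read-out, with IC50 expressing suppression of KYSE-70 cell growth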
Description: SANGER: Inhibition of human KYSE-70 cell growth in a cell viability assay.

MG-63 = test system: MG-63;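 note: growth inhibition of human MG-63 cells, read out with a cell viability assay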
Description: SANGER: Inhibition of human MG-63 cell growth in a cell viability assay.

SF-295 = test system: SF-295;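 note: growth inhibition of SF-295 cells, read out with a cell viability assay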
Description: SANGER: Inhibition of human SF295 cell growth in a cell viability assay.

SUP-T1 = test system: SUP-T1;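 note: growth inhibition of human SUP-T1 cells, read out as cell viability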
Description: SANGER: Inhibition of human SUP-T1 cell growth in a cell viability assay.

NCI-H1792 = test system: NCI-H1792;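 note: growth inhibition of human NCI-H1792 cells, read out as cell viability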
Description: SANGER: Inhibition of human NCI-H1792 cell growth in a cell viability assay.

KU-19-19 = test system: KU-19-19
Description: SANGER: Inhibition of human KU-19-19 cell growth in a cell viability assay.

P31-FUJ = test system: P31-FUJ;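 note: growth inhibition of P31-FUJ cells, read out with a viability assay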
Description: SANGER: Inhibition of human P31-FUJ cell growth in a cell viability assay.

KMS-12-PE = test system: KMS-12-PE;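 note: growth inhibition of human KMS-12-PE cells, measured with a cell viability assay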
Description: SANGER: Inhibition of human KMS-12-PE cell growth in a cell viability assay.

KYSE-520 cell line = test system: KYSE-520 cell line;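 note: growth inhibition of human KYSE-520 cells, read out with a viability assay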
Description: SANGER: Inhibition of human KYSE-520 cell growth in a cell viability assay.

SiHa = test system: SiHa;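 note: Viability-based readout of growth inhibition in SiHa cells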
Description: SANGER: Inhibition of human SiHa cell growth in a cell viability assay.

NALM-6 = test system: NALM-6;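 note: growth inhibition of NALM-6 cells, read out with a cell viability assay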
Description: SANGER: Inhibition of human NALM-6 cell growth in a cell viability assay.

COR-L105 = test system: COR-L105;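 note: cell growth inhibition determined with a viability assay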
Description: SANGER: Inhibition of human COR-L105 cell growth in a cell viability assay.

BL-41 = test system: BL-41;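 note: growth inhibition of human BL-41 cells, read out with a cell viability assay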
Description: SANGER: Inhibition of human BL-41 cell growth in a cell viability assay.

U-251 = test system: U-251;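 note: growth inhibition of human U-251 cells, read out through a cell viability assay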
Description: SANGER: Inhibition of human U251 cell growth in a cell viability assay.

HLE = test system: HLE;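 note: growth inhibition of human HLE cells, read out by a cell viability assay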
Description: SANGER: Inhibition of human HLE cell growth in a cell viability assay.

Daudi = test system: Daudi;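 note: growth inhibition of Daudi cells, read out by a viability assay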
Description: SANGER: Inhibition of human Daudi cell growth in a cell viability assay.

RT-112 = test system: RT-112
Description: SANGER: Inhibition of human RT-112 cell growth in a cell viability assay.

HCT-116 = test system: HCT-116
Description: SANGER: Inhibition of human HCT-116 cell growth in a cell viability assay.

DBTRG-05MG = test system: DBTRG-05MG;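 note: cell viability assay measuring growth inhibition of human DBTRG-05MG cells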
Description: SANGER: Inhibition of human DBTRG-05MG cell growth in a cell viability assay.

LB996-RCC = test system: LB996-RCC
Description: SANGER: Inhibition of human LB996-RCC cell growth in a cell viability assay.

COLO-792 = test system: COLO-792
Description: SANGER: Inhibition of human COLO-792 cell growth in a cell viability assay.

8305C = test system: 8305C
Description: SANGER: Inhibition of human 8305C cell growth in a cell viability assay.

HCC1419 = test system: HCC1419;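 note: growth inhibition of human HCC1419 cells, read out as cell viability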
Description: SANGER: Inhibition of human HCC1419 cell growth in a cell viability assay.

EFO-21 = test system: EFO-21;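 note: growth inhibition of EFO-21 cells measured with a viability assay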
Description: SANGER: Inhibition of human EFO-21 cell growth in a cell viability assay.

KYSE-510 = test system: KYSE-510;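 note: cell viability readout used to measure how strongly growth of the cell line is suppressed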
Description: SANGER: Inhibition of human KYSE-510 cell growth in a cell viability assay.

## C/C(O)=C(\C#N)C(=O)Nc1cc(Br)ccc1Br
J82
  IC50: > 16000 nM
EHEB
  IC50: > 16000 nM
SK-MEL-24
  IC50: > 16000 nM
BFTC-905
  IC50: > 16000 nM
SCC-9
  IC50: > 16000 nM
NCI-H1651
  IC50: > 16000 nM
DMS-153
  IC50: > 16000 nM
EFO-27
  IC50: > 16000 nM
MDA-MB-175-VII
  IC50: > 16000 nM
NCI-H596
  IC50: > 16000 nM
NCI-H1436
  IC50: > 16000 nM
SNU-387
  IC50: > 16000 nM
639-V
  IC50: > 16000 nM
Hs-578T
  IC50: > 16000 nM
OAW-42
  IC50: > 16000 nM
SK-MM-2
  IC50: > 16000 nM
AU565
  IC50: > 16000 nM
SW948
  IC50: > 16000 nM
RERF-LC-MS
  IC50: > 16000 nM
UACC-893
  IC50: > 16000 nM
LU-99A
  IC50: > 16000 nM
NCI-H2196
  IC50: > 16000 nM
T84
  IC50: > 16000 nM
CA46
  IC50: > 16000 nM
A-431
  IC50: > 16000 nM
HCC38
  IC50: > 16000 nM
PC-14
  IC50: > 16000 nM
HT-3
  IC50: > 16000 nM
U-698-M
  IC50: > 16000 nM
LK-2
  IC50: > 16000 nM
NCI-H441
  IC50: > 16000 nM
HT-1080
  IC50: > 16000 nM
SW1783
  IC50: > 16000 nM
REH
  IC50: > 16000 nM
H4
  IC50: > 16000 nM
NCI-H2122
  IC50: > 16000 nM
NCI-H748
  IC50: > 16000 nM
KYSE-70 cell line
  IC50: > 16000 nM
MG-63
  IC50: > 16000 nM
SF-295
  IC50: > 16000 nM
SUP-T1
  IC50: > 16000 nM
NCI-H1792
  IC50: > 16000 nM
KU-19-19
  IC50: > 16000 nM
P31-FUJ
  IC50: > 16000 nM
KMS-12-PE
  IC50: > 16000 nM
KYSE-520 cell line
  IC50: > 16000 nM
SiHa
  IC50: > 16000 nM
NALM-6
  IC50: > 16000 nM
COR-L105
  IC50: > 16000 nM
BL-41
  IC50: > 16000 nM
U-251
  IC50: > 16000 nM
HLE
  IC50: > 16000 nM
Daudi
  IC50: > 16000 nM
RT-112
  IC50: > 16000 nM
HCT-116
  IC50: > 16000 nM
DBTRG-05MG
  IC50: > 16000 nM
LB996-RCC
  IC50: > 16000 nM
COLO-792
  IC50: > 16000 nM
8305C
  IC50: > 16000 nM
HCC1419
  IC50: > 16000 nM
EFO-21
  IC50: > 16000 nM
KYSE-510
  IC50: > 16000 nM

## C/C=C(/C)C(=O)O[C@H]1C(C)=C2[C@H]([C@@H]1OC(=O)CCCCCCC)[C@@](C)(OC(C)=O)C[C@H](OC(=O)CCC)[C@@]1(O)[C@H]2OC(=O)[C@@]1(C)O [THAPSIGARGIN]
J82
  IC50: 7.91 nM
EHEB
  IC50: 94.1 nM
SK-MEL-24
  IC50: > 512 nM
BFTC-905
  IC50: 0.662 nM
SCC-9
  IC50: 447 nM
NCI-H1651
  IC50: 41.3 nM
DMS-153
  IC50: 19.9 nM
EFO-27
  IC50: 25.4 nM
MDA-MB-175-VII
  IC50: 330 nM
NCI-H596
  IC50: 38.9 nM
NCI-H1436
  IC50: > 512 nM
SNU-387
  IC50: 2.2 nM
639-V
  IC50: 0.512 nM
Hs-578T
  IC50: > 512 nM
OAW-42
  IC50: 27 nM
SK-MM-2
  IC50: 45.6 nM
AU565
  IC50: 1.2 nM
SW948
  IC50: > 512 nM
RERF-LC-MS
  IC50: 1.37 nM
UACC-893
  IC50: 58.7 nM
LU-99A
  IC50: 1.36 nM
NCI-H2196
  IC50: > 512 nM
T84
  IC50: 13.4 nM
CA46
  IC50: 2.98 nM
A-431
  IC50: 4.11 nM
HCC38
  IC50: 1.37 nM
PC-14
  IC50: 8.01 nM
HT-3
  IC50: 21.7 nM
U-698-M
  IC50: 77.4 nM
LK-2
  IC50: 1.46 nM
NCI-H441
  IC50: 12.6 nM
HT-1080
  IC50: < 2 nM
SW1783
  IC50: 9.24 nM
REH
  IC50: 6.39 nM
H4
  IC50: 1.98 nM
NCI-H2122
  IC50: 4.49 nM
NCI-H748
  IC50: 31.3 nM
KYSE-70 cell line
  IC50: < 2 nM
MG-63
  IC50: 2.79 nM
SF-295
  IC50: < 2 nM
SUP-T1
  IC50: 54.7 nM
NCI-H1792
  IC50: 0.526 nM
KU-19-19
  IC50: 80 nM
P31-FUJ
  IC50: 72.1 nM
KMS-12-PE
  IC50: 297 nM
KYSE-520 cell line
  IC50: 20.7 nM
SiHa
  IC50: > 512 nM
NALM-6
  IC50: < 2 nM
COR-L105
  IC50: 11.5 nM
BL-41
  IC50: < 2 nM
U-251
  IC50: < 2 nM
HLE
  IC50: 2.75 nM
Daudi
  IC50: 3.63 nM
RT-112
  IC50: 4.22 nM
HCT-116
  IC50: 0.943 nM
DBTRG-05MG
  IC50: 11.7 nM
LB996-RCC
  IC50: 31.3 nM
COLO-792
  IC50: 59.6 nM
8305C
  IC50: 2.7 nM
HCC1419
  IC50: > 512 nM
EFO-21
  IC50: 16.4 nM
KYSE-510
  IC50: < 2 nM
